Consider 4 compounds from PubChem BioAssay (NCI).

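Grown in 96-well plates, cells were treated for 48 hours with each compound at five concentrations. Insufficient inhibition: endpoint recorded as highest concentration tested. TGI: total growth inhibition.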 A value given as a limit tells only on which side of the number the result lay.

The first test deals with DLD-1 colon. The test can be described thus: NCI anticancer screen, dose series, 48 h.
In turn, `O=C1c2ccccc2N2OC3(N4CCOCC4)CCCC3C12c1ccccc1` (stereo not given) gave a TGI of more than 100 µM.
On the same count and under the same terms, as for `O=C(c1ccccc1)C1(Br)S(=O)(=O)OCCOS1(=O)=O`, the figure is more than 100 µM; as for `C1CCC(N=C2N(C3CCCCC3)C(=NC3CCCCC3)N2C2CCCCC2)CC1`, more than 100 µM.

The test system of another test is DMS 114 small cell lung. The test can be described thus: NCI anticancer screen, dose series, 48 h.
On to `O=C1c2ccccc2N2OC3(N4CCOCC4)CCCC3C12c1ccccc1` (stereo not given), for which the TGI was more than 100 µM.
On the same count and under the same terms, as for `COC(=O)[C@@]12OC[C@]34C([C@@H](O)C1O)[C@@]1(C)CC(=O)C(OC(=O)CC(C)C(F)(F)F)=C(C)C1C[C@H]3OC(=O)[C@H](O)[C@H]42` (stereo not given in full), the figure is 18.5 µM; as for `O=C(c1ccccc1)C1(Br)S(=O)(=O)OCCOS1(=O)=O`, more than 100 µM.
Turning to `C1CCC(N=C2N(C3CCCCC3)C(=NC3CCCCC3)N2C2CCCCC2)CC1`, the TGI was more than 100 µM.

The subject of the next test is DMS 273 small cell lung. In words: NCI anticancer screen, dose series, 48 h.
Consider `O=C1c2ccccc2N2OC3(N4CCOCC4)CCCC3C12c1ccccc1` (stereo not given), for which the TGI is more than 100 µM.
Same read-out and setting: the figure for `COC(=O)[C@@]12OC[C@]34C([C@@H](O)C1O)[C@@]1(C)CC(=O)C(OC(=O)CC(C)C(F)(F)F)=C(C)C1C[C@H]3OC(=O)[C@H](O)[C@H]42` (stereo not given in full) is 11.2 µM; for `O=C(c1ccccc1)C1(Br)S(=O)(=O)OCCOS1(=O)=O` it is more than 100 µM.
On the same count and under the same terms, as for `C1CCC(N=C2N(C3CCCCC3)C(=NC3CCCCC3)N2C2CCCCC2)CC1`, the figure is more than 100 µM.

For the next test, the system named is HOP-18 NSCLC. In words: NCI anticancer screen, dose series, 48 h.
On to `O=C1c2ccccc2N2OC3(N4CCOCC4)CCCC3C12c1ccccc1` (stereo not given), for which the TGI is more than 100 µM.
In turn, `COC(=O)[C@@]12OC[C@]34C([C@@H](O)C1O)[C@@]1(C)CC(=O)C(OC(=O)CC(C)C(F)(F)F)=C(C)C1C[C@H]3OC(=O)[C@H](O)[C@H]42` (stereo not given in full) had a TGI of 29.2 µM.
The same measure, in the same setting: the figure for `C1CCC(N=C2N(C3CCCCC3)C(=NC3CCCCC3)N2C2CCCCC2)CC1` is more than 100 µM.

In the next test the test system is K-562 leukemia. The test can be described thus: NCI anticancer screen, dose series, 48 h.
Consider `O=C1c2ccccc2N2OC3(N4CCOCC4)CCCC3C12c1ccccc1` (stereo not given), for which the TGI is more than 100 µM.
Still for that read-out and setting: as for `COC(=O)[C@@]12OC[C@]34C([C@@H](O)C1O)[C@@]1(C)CC(=O)C(OC(=O)CC(C)C(F)(F)F)=C(C)C1C[C@H]3OC(=O)[C@H](O)[C@H]42` (stereo not given in full), the figure is more than 62.5 µM; as for `O=C(c1ccccc1)C1(Br)S(=O)(=O)OCCOS1(=O)=O`, more than 100 µM.
Still for that read-out and setting: the figure for `C1CCC(N=C2N(C3CCCCC3)C(=NC3CCCCC3)N2C2CCCCC2)CC1` is more than 100 µM.

The test system of another test is KM20L2 colon. In words: NCI anticancer screen, dose series, 48 h.
The compound `O=C1c2ccccc2N2OC3(N4CCOCC4)CCCC3C12c1ccccc1` (stereo not given) yielded a TGI of more than 100 µM.
`COC(=O)[C@@]12OC[C@]34C([C@@H](O)C1O)[C@@]1(C)CC(=O)C(OC(=O)CC(C)C(F)(F)F)=C(C)C1C[C@H]3OC(=O)[C@H](O)[C@H]42` (stereo not given in full) registered a TGI of more than 62.5 µM.
The same measure, in the same setting: the figure for `O=C(c1ccccc1)C1(Br)S(=O)(=O)OCCOS1(=O)=O` is more than 100 µM.
The compound `C1CCC(N=C2N(C3CCCCC3)C(=NC3CCCCC3)N2C2CCCCC2)CC1` came in with a TGI of more than 100 µM.

In another test the test system is LOX IMVI melanoma. In words: NCI anticancer screen, dose series, 48 h.
The compound `O=C(c1ccccc1)C1(Br)S(=O)(=O)OCCOS1(=O)=O` had a TGI of more than 100 µM.
On the same count and under the same terms, as for `C1CCC(N=C2N(C3CCCCC3)C(=NC3CCCCC3)N2C2CCCCC2)CC1`, the figure is more than 100 µM.

In a further test the test system is LXFL 529 NSCLC. The test can be described thus: NCI anticancer screen, dose series, 48 h.
The compound `O=C1c2ccccc2N2OC3(N4CCOCC4)CCCC3C12c1ccccc1` (stereo not given) returned a TGI of more than 100 µM.
The same measure, in the same setting: as for `COC(=O)[C@@]12OC[C@]34C([C@@H](O)C1O)[C@@]1(C)CC(=O)C(OC(=O)CC(C)C(F)(F)F)=C(C)C1C[C@H]3OC(=O)[C@H](O)[C@H]42` (stereo not given in full), the figure is more than 62.5 µM; as for `O=C(c1ccccc1)C1(Br)S(=O)(=O)OCCOS1(=O)=O`, more than 100 µM.
`C1CCC(N=C2N(C3CCCCC3)C(=NC3CCCCC3)N2C2CCCCC2)CC1` showed a TGI of more than 100 µM.

The subject of the next test is M19-MEL melanoma. The test can be described thus: NCI anticancer screen, dose series, 48 h.
In turn, `O=C1c2ccccc2N2OC3(N4CCOCC4)CCCC3C12c1ccccc1` (stereo not given) had a TGI of more than 100 µM.
On the same count and under the same terms, as for `COC(=O)[C@@]12OC[C@]34C([C@@H](O)C1O)[C@@]1(C)CC(=O)C(OC(=O)CC(C)C(F)(F)F)=C(C)C1C[C@H]3OC(=O)[C@H](O)[C@H]42` (stereo not given in full), the figure is 6.25 µM; as for `O=C(c1ccccc1)C1(Br)S(=O)(=O)OCCOS1(=O)=O`, more than 100 µM; as for `C1CCC(N=C2N(C3CCCCC3)C(=NC3CCCCC3)N2C2CCCCC2)CC1`, more than 100 µM.

For the next test, the system named is MOLT-4 leukemia. In words: NCI anticancer screen, dose series, 48 h.
For `O=C1c2ccccc2N2OC3(N4CCOCC4)CCCC3C12c1ccccc1` (stereo not given), the TGI is more than 100 µM.
On the same count and under the same terms, as for `COC(=O)[C@@]12OC[C@]34C([C@@H](O)C1O)[C@@]1(C)CC(=O)C(OC(=O)CC(C)C(F)(F)F)=C(C)C1C[C@H]3OC(=O)[C@H](O)[C@H]42` (stereo not given in full), the figure is 19.4 µM.
Consider `O=C(c1ccccc1)C1(Br)S(=O)(=O)OCCOS1(=O)=O`, for which the TGI was more than 100 µM.
Still for that read-out and setting: as for `C1CCC(N=C2N(C3CCCCC3)C(=NC3CCCCC3)N2C2CCCCC2)CC1`, the figure is more than 100 µM.

In another test the test system is NCI-H522 lung. The test can be described thus: NCI anticancer screen, dose series, 48 h.
With `O=C1c2ccccc2N2OC3(N4CCOCC4)CCCC3C12c1ccccc1` (stereo not given), the TGI is more than 100 µM.
Same read-out and setting: the figure for `COC(=O)[C@@]12OC[C@]34C([C@@H](O)C1O)[C@@]1(C)CC(=O)C(OC(=O)CC(C)C(F)(F)F)=C(C)C1C[C@H]3OC(=O)[C@H](O)[C@H]42` (stereo not given in full) is 24.5 µM; for `O=C(c1ccccc1)C1(Br)S(=O)(=O)OCCOS1(=O)=O` it is more than 100 µM.
On the same count and under the same terms, as for `C1CCC(N=C2N(C3CCCCC3)C(=NC3CCCCC3)N2C2CCCCC2)CC1`, the figure is more than 100 µM.

The test system of the next test is SNB-75 CNS. The test can be described thus: NCI anticancer screen, dose series, 48 h.
The compound `O=C1c2ccccc2N2OC3(N4CCOCC4)CCCC3C12c1ccccc1` (stereo not given) returned a TGI of more than 100 µM.
On the same count and under the same terms, the figure for `COC(=O)[C@@]12OC[C@]34C([C@@H](O)C1O)[C@@]1(C)CC(=O)C(OC(=O)CC(C)C(F)(F)F)=C(C)C1C[C@H]3OC(=O)[C@H](O)[C@H]42` (stereo not given in full) is 31.4 µM.
Same read-out and setting: the figure for `O=C(c1ccccc1)C1(Br)S(=O)(=O)OCCOS1(=O)=O` is more than 100 µM; for `C1CCC(N=C2N(C3CCCCC3)C(=NC3CCCCC3)N2C2CCCCC2)CC1` it is more than 100 µM.

Another test relates to SNB-78 CNS. The test can be described thus: NCI anticancer screen, dose series, 48 h.
Turning to `O=C1c2ccccc2N2OC3(N4CCOCC4)CCCC3C12c1ccccc1` (stereo not given), the TGI was more than 100 µM.
Compound `COC(=O)[C@@]12OC[C@]34C([C@@H](O)C1O)[C@@]1(C)CC(=O)C(OC(=O)CC(C)C(F)(F)F)=C(C)C1C[C@H]3OC(=O)[C@H](O)[C@H]42` (stereo not given in full) had a TGI of more than 62.5 µM.
For `O=C(c1ccccc1)C1(Br)S(=O)(=O)OCCOS1(=O)=O`, the TGI is more than 100 µM.

The next test relates to UACC-62 melanoma. The test can be described thus: NCI anticancer screen, dose series, 48 h.
Compound `O=C1c2ccccc2N2OC3(N4CCOCC4)CCCC3C12c1ccccc1` (stereo not given) registered a TGI of more than 100 µM.
Same read-out and setting: the figure for `COC(=O)[C@@]12OC[C@]34C([C@@H](O)C1O)[C@@]1(C)CC(=O)C(OC(=O)CC(C)C(F)(F)F)=C(C)C1C[C@H]3OC(=O)[C@H](O)[C@H]42` (stereo not given in full) is 4.37 µM; for `O=C(c1ccccc1)C1(Br)S(=O)(=O)OCCOS1(=O)=O` it is more than 100 µM.
Same read-out and setting: as for `C1CCC(N=C2N(C3CCCCC3)C(=NC3CCCCC3)N2C2CCCCC2)CC1`, the figure is more than 100 µM.

The subject of a further test is XF 498 CNS. The test can be described thus: NCI anticancer screen, dose series, 48 h.
Consider `O=C1c2ccccc2N2OC3(N4CCOCC4)CCCC3C12c1ccccc1` (stereo not given), for which the TGI is more than 100 µM.
For the compound `COC(=O)[C@@]12OC[C@]34C([C@@H](O)C1O)[C@@]1(C)CC(=O)C(OC(=O)CC(C)C(F)(F)F)=C(C)C1C[C@H]3OC(=O)[C@H](O)[C@H]42` (stereo not given in full), the TGI turned out to be 5.18 µM.
Still for that read-out and setting: the figure for `O=C(c1ccccc1)C1(Br)S(=O)(=O)OCCOS1(=O)=O` is more than 100 µM.
`C1CCC(N=C2N(C3CCCCC3)C(=NC3CCCCC3)N2C2CCCCC2)CC1`: the TGI was more than 100 µM.
